# Assay results: US11078496B2, “System for F-box hormone receptor regulated protein expression in mammalian cells” (ICAHN SCHOOL OF MEDICINE AT MOUNT SINAI, priority 2016, dated 2021)
# Tested on: aphidicolin-treated mESCs
# Assay: Mitotic entry after auxin in aphidicolin-treated A-CHK1 mESCs (mitotic index, flow cytometry)
# Assay type: cell-based, mouse
# Details: A-CHK1 mESCs pretreated with aphidicolin for 1 day
# Procedure: FIG. 5A is a western blot analysis depicting endogenous CHK1 (*) and AID^47-CHK1 (A-CHK1, **) in four selected clones and in parental non-infected mESCs. […] serves as a loading control. Experiment was repeated three times for clones #1 and #2, and a representative blot is presented. In FIG. 5B, A-CHK1 #2 mESCs were treated with ethanol (“Con”) or auxin (“IAA”) for 1 day. Cells were then treated with the indicated concentrations of aphidicolin (“Aph”). Equal concentrations of DMSO were applied to all conditions. The next day, cells were stained with crystal violet and plates were scanned. […] Left panel: mitotic index was calculated as the percentage of H3^pS10-positive cells with 4N DNA content, measured by flow cytometry. […] Tyr15 phosphorylation of CDK1 (“CDKlpY^15”) was detected using a phospho-specific antibody. β-Actin serves as a loading control. […]
# Flow cytometry was performed on a BD LSRII machine. For GFP and mOrange fluorescence analysis, cells were trypsinized, neutralized with FBS-containing media, supplemented with […] DAPI and kept on ice. […] GFP and mOrange fluorescence intensities were detected using the fluorescein isothiocyanate (“FITC”) and DsRed channels, respectively. Background autofluorescence was measured using parental noninfected cells. […] To calculate % degradation, relative median fluorescence was subtracted from 1. […]
smiles,measurement,value
"O=C(O)Cc1c[nH]c2ccccc12 [auxin, indole-3-acetic acid]",time of synchronous mitotic entry post-auxin treatment,45 to 90 min
